Data taken from patent US9090632B2, “Bicyclic oxazole and thiazole compounds and their use as allosteric modulators of mGluR5 receptors” (Vanderbilt University, priority 2010, dated 2015).

What was measured:
[1] = target: human mGluR5 (Homo sapiens, UniProt P41594); test: Cell-based functional Ca2+ mobilization assay, potentiation of glutamate EC20 response (H10H cell-line); details: H10H cell-line expressing recombinant human mGluR5; for Emax / Emax (%): in presence of glutamate EC20, normalized to maximal glutamate response; for EC50 / pEC50: potentiation in presence of glutamate EC20
Description: Human embryonic kidney (HEK) cells transfected with rat mGluR5 were plated in clear bottom assay plates for assay in a Functional Drug Screening System (FDSS). In the alternative assay, HEK cells transfected with human mGluR5 were plated for assay in the FDSS. In some cases the HEK cells transfected with human mGluR5 are the H10H cell line. Alternatively, the HEK cells transfected with human mGluR5 are the H12H cell line. […] The cells were loaded with a Ca^2+-sensitive fluorescent dye (e.g., Fluo-4), and the plates were washed and placed in the FDSS instrument. After establishment of a fluorescence baseline for about three seconds, the compounds of the present invention were added to the cells, and the response in cells was measured. Five minutes later, an mGluR5 agonist (e.g., glutamate, 3,5-dihydroxyphenylglycine, or quisqualate) was added to the cells, and the response of the cells was measured. Potentiation of the agonist response of mGluR5 by the compounds in the present invention was observed as an increase in response to non-maximal concentrations of agonist (here, glutamate) in the presence of compound compared to the response to agonist in the absence of compound.
The above described assay can be operated in two modes. In the first mode, a range of concentrations of the present compounds were added to cells, followed by a single fixed concentration of agonist. If a compound acted as a potentiator, an EC50 value for potentiation and a maximum extent of potentiation by the compound at this concentration of agonist was determined by non-linear curve fitting. In the second mode, several fixed concentrations of the present compounds were added to various wells on a plate, followed by a range of concentrations of agonist for each concentration of present compound; the EC50 values for the agonist at each concentration of compound were determined by non-linear curve fitting. A decrease in the EC50 value of the agonist with increasing concentrations of the present compounds (a leftward shift of the agonist concentration-response curve) is an indication of the degree of mGluR5 potentiation at a given concentration of the present compound. An increase in the EC50 value of the agonist with increasing concentrations of the present compounds (a rightward shift of the agonist concentration-response curve) is an indication of the degree of mGluR5 antagonism at a given concentration of the present compound. The second mode also indicates whether the present compounds also affect the maximum response to mGluR5 to agonists.
Human mGluR5a cDNA in pCMV6-XL6 mammalian expression plasmid was purchased from OriGene Technologies, Inc. (catalogue number SC326357) and subcloned into pcDNA3.1(−). Human embryonic kidney (HEK) 293A cells were then transfected with human mGluR5a pcDNA3.1(−) using LipofectAmine 2000 (Invitrogen) and monoclones were selected and tested for functional response using a Ca^2+ mobilization assay. Monoclones were named for the species (“H” for human) plus the location on the plate (e.g. “10H”).
HEK cells transfected with the human mGluR5a receptor were plated at 15,000 cells/well in clear-bottomed poly-D-lysine-coated assay plates (BD Falcon) in glutamate-glutamine-free growth medium and incubated overnight at 37° C. and 5% CO2. The cell-line used to obtain the data reported herein was the H10H cell-line expressing the human mGluR5 receptor. Although the H10H cell-line was used to obtain the data shown herein, the H12H cell-line expressing the human mGluR5 receptor can also be used in these assays. The following day, the growth medium was removed and the cells were washed with assay buffer containing 1× Hank's balanced salt solution (Invitrogen, Carlsbad, Calif.), 20 mM HEPES, 2.5 mM probenecid, pH 7.4 and left with 20 μL of this reagent. Following this step, the cells were loaded with calcium indicator dye, fluo-4 AM, to a final concentration of 2 μM and incubated for 40-45 min at 37° C. […]

Sequence of human mGluR5 (P41594 21-1180 isoform P41594-2 limits assumed): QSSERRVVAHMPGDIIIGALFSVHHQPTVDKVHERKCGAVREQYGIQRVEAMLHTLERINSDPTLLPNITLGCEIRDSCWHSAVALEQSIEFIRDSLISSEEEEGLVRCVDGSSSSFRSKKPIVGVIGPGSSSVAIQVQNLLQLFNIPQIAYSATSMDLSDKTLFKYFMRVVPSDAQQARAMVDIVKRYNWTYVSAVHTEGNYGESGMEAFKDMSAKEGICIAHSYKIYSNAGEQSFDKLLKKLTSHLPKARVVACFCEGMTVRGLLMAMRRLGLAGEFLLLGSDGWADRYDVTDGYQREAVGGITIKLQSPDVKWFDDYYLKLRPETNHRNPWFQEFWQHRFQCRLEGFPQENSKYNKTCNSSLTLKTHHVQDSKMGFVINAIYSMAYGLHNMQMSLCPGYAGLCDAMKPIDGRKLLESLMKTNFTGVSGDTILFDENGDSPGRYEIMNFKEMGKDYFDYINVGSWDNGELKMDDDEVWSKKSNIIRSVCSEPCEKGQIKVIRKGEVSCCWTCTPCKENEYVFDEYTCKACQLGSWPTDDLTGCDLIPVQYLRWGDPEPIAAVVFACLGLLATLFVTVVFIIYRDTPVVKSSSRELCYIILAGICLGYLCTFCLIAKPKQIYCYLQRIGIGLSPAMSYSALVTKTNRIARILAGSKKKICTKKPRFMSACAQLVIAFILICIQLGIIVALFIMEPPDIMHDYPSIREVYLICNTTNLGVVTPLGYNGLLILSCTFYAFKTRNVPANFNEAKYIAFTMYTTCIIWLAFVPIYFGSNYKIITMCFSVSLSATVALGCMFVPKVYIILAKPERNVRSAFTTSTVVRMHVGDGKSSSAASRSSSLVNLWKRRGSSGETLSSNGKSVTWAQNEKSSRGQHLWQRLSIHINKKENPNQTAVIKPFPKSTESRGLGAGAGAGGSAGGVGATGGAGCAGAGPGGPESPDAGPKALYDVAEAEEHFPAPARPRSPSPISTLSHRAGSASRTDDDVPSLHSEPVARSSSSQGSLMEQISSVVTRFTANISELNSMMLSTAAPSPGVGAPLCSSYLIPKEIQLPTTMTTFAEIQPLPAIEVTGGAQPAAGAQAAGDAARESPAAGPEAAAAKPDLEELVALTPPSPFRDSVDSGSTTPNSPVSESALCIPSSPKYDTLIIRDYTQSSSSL

Structure (SMILES)	Emax [1] [%]	EC50 [1] [nM]	melting point [°C]	Emax (%) [1] [%]	pEC50 [1]	mGluR5 activity type (footnote) [1]
O=C(c1cccc(F)c1)N1CCc2nc(COc3ccccc3)oc2C1 [Example B7, 5-[(3-fluorophenyl)carbonyl]-2-(phenoxymethyl)-4,5,6,7-tetrahydro[1,3]oxazolo[5,4-c]pyridine]	80	112	66			
O=C(c1ccccc1)N1CCc2nc(COc3cccc(F)c3)oc2C1 [Example B26]	80	251	204.7			
O=C(c1cccc(F)c1)N1CCc2nc(COc3cccc(F)c3)oc2C1 [Example B27]	76	186	74.7			
O=C(c1cc(F)cc(F)c1)N1CCc2nc(COc3cccc(F)c3)oc2C1 [Example B30]	44	148	70			
O=C(N1CCc2nc(COc3ccccc3)oc2C1)C(F)(F)F [Example B34, 2-(phenoxymethyl)-5-(trifluoroacetyl)-4,5,6,7-tetrahydro[1,3]oxazolo[5,4-c]pyridine]	10	891	71.8			
O=C(c1ccc(F)cc1)N1CCc2nc(COc3ccc(O)cc3)oc2C1 [Example B35, 4-({5-[(4-fluorophenyl)carbonyl]-4,5,6,7-tetrahydro[1,3]oxazolo[5,4-c]pyridin-2-yl}methoxy)phenol]	57	> 10000	137.4			
O=C(c1c[nH]c2ccccc12)N1CCc2nc(COc3ccccc3)oc2C1 [Example B117]				69	6.60	
O=C(c1cnc(C(F)(F)F)nc1)N1CCc2nc(COc3ccccc3)oc2C1 [Example B118]				37	<5	
O=C(c1cc2ccccc2o1)N1CCc2nc(COc3ccccc3)oc2C1 [Example B120]	67	> 10000				
Cc1ccoc1C(=O)N1CCc2nc(COc3ccccc3)oc2C1 [Example B121]				51	6.72	
O=C(c1ccc(C(F)(F)F)o1)N1CCc2nc(COc3ccccc3)oc2C1 [Example B122]				68	6.67	
O=C(c1n[nH]c2ccccc12)N1CCc2nc(COc3ccccc3)oc2C1 [Example B126]	72	389				
O=C(c1ccc(F)cc1)N1CCc2nc(COc3ccc(C(F)(F)F)cc3)oc2C1 [Example B128]				25	<4.52	
O=C(c1ccc(F)cc1)N1CCc2nc(CCc3ccccc3)oc2C1 [Example B131, 5-[(4-fluorophenyl)carbonyl]-2-(2-phenylethyl)-4,5,6,7-tetrahydro[1,3]oxazolo[5,4-c]pyridine]	24	> 30200				
O=C(Cc1ccc(F)cc1)N1CCc2nc(COc3ccccc3)oc2C1 [Example B134]	61	1200				
Cc1ncc(C(=O)N2CCc3nc(COc4ccccc4)oc3C2)cn1 [Example B135]	36	> 10000				

Structure (SMILES)	Emax [1] [%]	EC50 [1] [nM]	melting point [°C]	Emax (%) [1] [%]	pEC50 [1]	mGluR5 activity type (footnote) [1]
N#Cc1cc(F)cc(OCc2nc3c(o2)CN(C(=O)c2ccc(F)cc2)CC3)c1 [Example B136]				45	<5	
COCC(=O)N1CCc2nc(COc3ccccc3)oc2C1 [Example B138]				27	<4.52	
CC(C)(C)C(=O)N1CCc2nc(COc3ccccc3)oc2C1 [Example B142]						**The indicated compound is a mGluR5 antagonist.
O=C(c1n[nH]c2ccncc12)N1CCc2nc(COc3ccccc3)oc2C1 [Example B143]	68				5.85	
O=C(c1n[nH]c2cccnc12)N1CCc2nc(COc3ccccc3)oc2C1 [Example B144]	39				>5	
O=C(c1c[nH]c2cccnc12)N1CCc2nc(COc3ccccc3)oc2C1 [Example B145]	50	> 10000				
O=C(c1coc2ccccc12)N1CCc2nc(COc3ccccc3)oc2C1 [Example B146]	61	407				
O=C(c1ccc(F)cc1)N1CCc2nc(COc3cnccn3)oc2C1 [Example B152]	36	> 10000				
O=C(c1ncc[nH]1)N1CCc2nc(COc3ccccc3)oc2C1 [Example B153]	32	> 30200				
O=C(c1c[nH]cn1)N1CCc2nc(COc3ccccc3)oc2C1 [Example B154]	26	> 30200				
O=C(Cc1c[nH]cn1)N1CCc2nc(COc3ccccc3)oc2C1.O=C(O)C(F)(F)F [Example B155]				30	<4.52	
Cc1cc(C(=O)N2CCc3nc(COc4ccccc4)oc3C2)no1 [Example B157]				45	<5	
O=C(c1nccs1)N1CCc2nc(COc3ccccc3)oc2C1 [Example B159]				23	<4.52	
O=C(c1ncccn1)N1CCc2nc(COc3ccccc3)oc2C1 [Example B160]				16	<4.52	
O=C(c1cccnn1)N1CCc2nc(COc3ccccc3)oc2C1 [Example B162]	17	> 30200				

Further lines, with some results ahead:

Emax [1] [%]	EC50 [1] [nM]	melting point [°C]	Emax (%) [1] [%]	pEC50 [1]	Structure (SMILES)	mGluR5 activity type (footnote) [1]
64	871	124.1 to 125.3			O=C(c1ccccc1F)N1CCc2nc(COc3ccccc3)sc2C1 [Example B5, 5-[(2-fluorophenyl)carbonyl]-2-(phenoxymethyl)-4,5,6,7-tetrahydro[1,3]thiazolo[5,4-c]pyridine]	
33	> 10000				O=C(CC(F)(F)F)N1CCc2nc(COc3ccccc3)oc2C1 [Example B116]	
22	> 10000				Cc1noc(C(=O)N2CCc3nc(COc4ccccc4)oc3C2)n1 [Example B119]	
			45	<5	O=C(c1cnn[nH]1)N1CCc2nc(COc3ccccc3)oc2C1 [Example B125]	
27	> 30200				O=C(c1ccc(F)cc1)N1CCc2nc(COc3ccc(Br)cc3)oc2C1 [Example B129]	
22	> 30200				O=C(c1ccc(F)cc1)N1CCc2nc(COc3ccccc3C(F)(F)F)oc2C1 [Example B130]	
49	> 10000				Cc1ccc(C(=O)N2CCc3nc(COc4ccccc4)oc3C2)cn1 [Example B132]	
32	> 10000				Cc1cccc(OCc2nc3c(o2)CN(C(=O)c2ccc(F)cc2)CC3)n1 [Example B133]	
			24	<4.52	N#Cc1cc(Br)cc(OCc2nc3c(o2)CN(C(=O)c2ccc(F)cc2)CC3)c1 [Example B137]	
10	> 30200				O=C(c1ccc(=O)[nH]c1)N1CCc2nc(COc3ccccc3)oc2C1 [Example B139]	
			58	5.77	CC(C)(C)OC(=O)NC(C(=O)N1CCc2nc(COc3ccccc3)oc2C1)C(C)(C)C (centres unmarked) [Example B140]	
74	363				O=C(c1n[nH]c2ncccc12)N1CCc2nc(COc3ccccc3)oc2C1 [Example B147]	
			43	<5	O=C(c1cnccn1)N1CCc2nc(COc3ccccc3)oc2C1 [Example B148]	
27	> 30200				Cn1cncc1C(=O)N1CCc2nc(COc3ccccc3)oc2C1 [Example B158]	
20	> 10000				Cc1nc(C(=O)N2CCc3nc(COc4ccccc4)oc3C2)no1 [Example B161]	
